Series [1] is described as follows: Kinetic resolution using papain, 170 U.mL e-1 at 24 hr expressed as percent ee unreacted. The class given is ADME.
For series [2], the species on record is Sus scrofa. Kind of series: Kinetic resolution using pig liver esterase, 240 U.mL e-1 at 48 hr expressed as percent ee unreacted. The class given is ADME, organism-based. The conditions noted are these: in vivo.
The species named for series [3] is Equus caballus. Kind of series: Kinetic resolution using horse liver esterase, 3 U.mL e-1 at 48 hr expressed as percent ee unreacted. Format: ADME, organism-based. The conditions noted are these: in vivo.
Series [4] is described as follows: Kinetic resolution using alpha-chymotrypsin, 375 U.mL e-1 at 72 hr expressed as percent ee unreacted. Format: ADME.

Each structure is given as a SMILES string.

`CCOP(=O)(OCC)c1coc(C[C@H](NC(=O)OC(C)(C)C)C(=O)O)c1`: the Unreacted drug stood at 75% in series [1], 60% in series [2] and 50% in series [3].
As for `CCOC(=O)[C@@H](Cc1cc(P(=O)(OCC)OCC)co1)NC(=O)OC(C)(C)C`, the Unreacted drug is given as 0% in series [4], over 96% in series [1], 70% in series [2] and 60% in series [3].

These data come from ChEMBL document CHEMBL1131720, “Phosphofurylalanine, a stable analog of phosphohistidine” (Bioorg Med Chem Lett, 1999).
